Measurements from BindingDB's records for patent US11566007 (Revolution Medicines, 2023).

Biological target: GTPase NRas [G12C] (Homo sapiens, UniProt P01111, G12C)
Test: Biochemical Assay

Sequence of GTPase NRas [G12C] (P01111 whole entry G12C): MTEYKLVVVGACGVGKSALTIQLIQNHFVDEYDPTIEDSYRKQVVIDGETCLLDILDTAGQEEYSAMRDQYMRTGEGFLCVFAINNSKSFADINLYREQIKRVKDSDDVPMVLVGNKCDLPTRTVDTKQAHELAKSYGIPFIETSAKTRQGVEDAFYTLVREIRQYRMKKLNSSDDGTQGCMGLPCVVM

| IC50 | SMILES |
| --- | --- |
| in the range around 5.5 µM | C=CC(=O)N1CC[C@H](C(=O)N(C)[C@H](C(=O)N[C@H]2Cc3cccc(c3)-c3ccc4c(c3)c(c(-c3ccccc3CCOC)n4CC)CC(C)(C)COC(=O)[C@@H]3CCCN(N3)C2=O)C(C)C)C1 [US11566007, Example A24] |

Biological target: GTPase KRas [G12C] (Homo sapiens, UniProt P01116, G12C)
Test: Biochemical Assay
Text: (§1) The purpose of this biochemical assay is to measure the ability of test compounds to covalently label nucleotide-loaded K-Ras isoforms. […] Analysis of raw data may be carried out using Waters MassLynx MS software, with % bound calculated from the deconvoluted protein peaks for labeled and unlabeled K-Ras.

Sequence of GTPase KRas [G12C] (P01116 whole entry G12C): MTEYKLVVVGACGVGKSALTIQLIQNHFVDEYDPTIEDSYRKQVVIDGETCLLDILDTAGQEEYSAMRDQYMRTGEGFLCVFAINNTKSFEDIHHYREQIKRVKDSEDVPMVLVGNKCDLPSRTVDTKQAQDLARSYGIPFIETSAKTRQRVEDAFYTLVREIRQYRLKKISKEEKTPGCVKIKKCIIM

| IC50 | SMILES |
| --- | --- |
| in the range around 0.55 µM | C=CC(=O)N1CC[C@H](C(=O)N(C)[C@H](C(=O)N[C@H]2Cc3cc(O)cc(c3)-c3ccc4c(c3)c(c(-c3cccc(CN(C)C)c3)n4CC)CC(C)(C)COC(=O)[C@@H]3CCCN(N3)C2=O)C(C)C)C1 [US11566007, Example A30] |
| in the range around 0.055 µM | C=CC(=O)N1C[C@H](C)[C@H](C(=O)N(C)[C@H](C(=O)N[C@H]2Cc3cc(O)cc(c3)-c3ccc4c(c3)c(c(-c3ccccc3CN(C)C)n4CC)CC(C)(C)COC(=O)[C@@H]3CCCN(N3)C2=O)C(C)C)C1 [US11566007, Example A52] |
| in the range around 0.055 µM | C=CC(=O)N1CC[C@H](C(=O)N(C)[C@H](C(=O)N[C@H]2Cc3cc(O)cc(c3)-c3ccc4c(c3)c(c(-c3cccnc3COCC)n4CC)CC(C)(C)COC(=O)[C@@H]3CCCN(N3)C2=O)C(C)C)C1 [US11566007, Example A44] |
| in the range around 0.55 µM | C=CC(=O)N1CC[C@H](C(=O)N(C)[C@H](C(=O)N[C@H]2Cc3cc(O)cc(c3)-c3ccc4c(c3)c(c(-c3ccc(C5CCN(C)CC5)cc3)n4CC)CC(C)(C)COC(=O)[C@@H]3CCCN(N3)C2=O)C(C)C)C1 [US11566007, Example A39] |
| in the range around 0.55 µM | C=CC(=O)N1CCC(C(=O)N(C)[C@H](C(=O)N[C@H]2Cc3cc(O)cc(c3)-c3ccc4c(c3)c(c(-c3ccccc3CCOC)n4CC)CC(C)(C)COC(=O)[C@@H]3CCCN(N3)C2=O)C(C)C)CC1 [US11566007, Example A14] |
| in the range around 0.055 µM | C=CC(=O)N1CC[C@H](C(=O)N(C)[C@H](C(=O)N[C@H]2Cc3cc(O)cc(c3)-c3ccc4c(c3)c(c(-c3cccnc3COC)n4CC)CC(C)(C)COC(=O)[C@@H]3CCCN(N3)C2=O)C2CCCC2)C1 [US11566007, Example A55] |
| in the range around 0.55 µM | C=CC(=O)N1CC[C@H](C(=O)N(C)[C@H](C(=O)N[C@H]2Cc3cc(O)cc(c3)-c3ccc4c(c3)c(c(-c3ccccc3OC)n4CC)CC(C)(C)COC(=O)[C@@H]3CCCN(N3)C2=O)C(C)C)C1 [US11566007, Example A17] |
| in the range around 0.55 µM | C=CC(=O)N1CC[C@H](C(=O)N(C)[C@H](C(=O)N[C@H]2Cc3cc(O)cc(c3)-c3ccc4c(c3)c(c(-c3cncc(CN(C)C)c3)n4CC)CC(C)(C)COC(=O)[C@@H]3CCCN(N3)C2=O)C(C)C)C1 [US11566007, Example A73] |
| in the range around 0.55 µM | C=CC(=O)N1CC[C@H](C(=O)N(C)[C@H](C(=O)N[C@H]2Cc3cc(O)cc(c3)-c3ccc4c(c3)c(c(-c3cccnc3COC)n4C)CC(C)(C)COC(=O)[C@@H]3CCCN(N3)C2=O)C(C)C)C1 [US11566007, Example A66] |
| in the range around 0.55 µM | C=CC(=O)N1CC[C@H](C(=O)N(C)[C@H](C(=O)N[C@H]2Cc3cc(O)cc(c3)-c3ccc4c(c3)c(c(-c3ccc(CN5CCCC5)cc3)n4CC)CC(C)(C)COC(=O)[C@@H]3CCCN(N3)C2=O)C(C)C)C1 [US11566007, Example A10] |
| in the range around 0.55 µM | C=CC(=O)N1CC[C@H](C(=O)N(C)[C@H](C(=O)N[C@H]2Cc3cc(OC(=O)CCN4CCN(C)CC4)cc(c3)-c3ccc4c(c3)c(c(-c3ccccc3CCOC)n4CC)CC(C)(C)COC(=O)[C@@H]3CCCN(N3)C2=O)C(C)C)C1 [US11566007, Example A7] |
| in the range around 0.55 µM | C=CC(=O)N1CC[C@H](C(=O)N(C)[C@H](C(=O)N[C@H]2Cc3cc(N)cc(c3)-c3ccc4c(c3)c(c(-c3ccccc3COC)n4CC)CC(C)(C)COC(=O)[C@@H]3CCCN(N3)C2=O)C(C)C)C1 [US11566007, Example A42] |
| in the range around 0.055 µM | C=CC(=O)N1CC[C@H](C(=O)N(C)[C@H](C(=O)N[C@H]2Cc3cc(O)cc(c3)-c3ccc4c(c3)c(c(-c3ccccc3[C@@H](C)OC)n4CC)CC(C)(C)COC(=O)[C@@H]3CCCN(N3)C2=O)C(C)C)C1 [US11566007, Example A29] |
| in the range around 0.55 µM | C=CC(=O)N1CC[C@H](C(=O)N(C)[C@H](C(=O)N[C@H]2Cc3cc(O)cc(c3)-c3ccc4c(c3)c(c(-c3cncc(C#N)c3)n4CC)CC(C)(C)COC(=O)[C@@H]3CCCN(N3)C2=O)C(C)C)C1 [US11566007, Example A62] |
| in the range around 0.55 µM | C=CC(=O)N1CC[C@H](C(=O)N(C)[C@H](C(=O)N[C@H]2Cc3cc(O)cc(c3)-c3ccc4c(c3)c(c(-c3ccccc3CCOC)n4CC)CC(C)(C)COC(=O)[C@@H]3CCCN(N3)C2=O)C2CCOCC2)C1 [US11566007, Example A6] |
| in the range around 0.55 µM | C=CC(=O)N1CC[C@H](C(=O)N(C)[C@H](C(=O)N[C@H]2Cc3cc(O)cc(c3)-c3ccc4c(c3)c(c(-c3ccc(CN5CC[C@@H](O)C5)cc3)n4CC)CC(C)(C)COC(=O)[C@@H]3CCCN(N3)C2=O)C(C)C)C1 [US11566007, Example A1] |

Further lines, the compound ahead of its results:

| SMILES | IC50 |
| --- | --- |
| C=CC(=O)N1CC[C@H](C(=O)N(C)[C@H](C(=O)N[C@H]2Cc3cc(OC(=O)CN)cc(c3)-c3ccc4c(c3)c(c(-c3ccccc3CCOC)n4CC)CC(C)(C)COC(=O)[C@@H]3CCCN(N3)C2=O)C(C)C)C1 [US11566007, Example A8] | in the range around 0.55 µM |
| CCn1c(-c2ccccc2CN(C)C)c2c3cc(ccc31)-c1cc(O)cc(c1)C[C@H](NC(=O)[C@H](C(C)C)N(C)C(=O)c1ccc(NC(=O)/C=C/CN(C)C)cn1)C(=O)N1CCC[C@H](N1)C(=O)OCC(C)(C)C2 [US11566007, Example A46] | in the range around 0.55 µM |
| C=CC(=O)N1C[C@H](C)[C@H](C(=O)N(C)[C@H](C(=O)N[C@H]2Cc3cc(O)cc(c3)-c3ccc4c(c3)c(c(-c3cccnc3COC)n4CC)CC(C)(C)COC(=O)[C@@H]3CCCN(N3)C2=O)C(C)C)C1 [US11566007, Example A56] | in the range around 0.055 µM |
| C=CC(=O)N1CCC(F)(C(=O)N(C)[C@H](C(=O)N[C@H]2Cc3cc(O)cc(c3)-c3ccc4c(c3)c(c(-c3ccccc3CN(C)C)n4CC)CC(C)(C)COC(=O)[C@@H]3CCCN(N3)C2=O)C(C)C)CC1 [US11566007, Example A20] | in the range around 0.055 µM |
| C=CC(=O)N1CC2(CCN([C@H](C(=O)N[C@H]3Cc4cc(O)cc(c4)-c4ccc5c(c4)c(c(-c4ccccc4CCOC)n5CC)CC(C)(C)COC(=O)[C@@H]4CCCN(N4)C3=O)C(C)C)C2=O)C1 [US11566007, Example A31] | in the range around 0.055 µM |
| C=CC(=O)N1C[C@H](C)[C@H](C(=O)N(C)[C@H](C(=O)N[C@H]2Cc3cc(O)cc(c3)-c3ccc4c(c3)c(c(-c3cccnc3COC)n4CC)CC(C)(C)COC(=O)[C@@H]3CCCN(N3)C2=O)C2CCCC2)C1 [US11566007, Example A57] | in the range around 0.055 µM |
| C=CC(=O)N1CC[C@@]2(CCCN([C@H](C(=O)N[C@H]3Cc4cc(O)cc(c4)-c4ccc5c(c4)c(c(-c4ccccc4CCOC)n5CC)CC(C)(C)COC(=O)[C@@H]4CCCN(N4)C3=O)C(C)C)C2=O)C1 [US11566007, Example A63] | in the range around 0.55 µM |
| C=CC(=O)N1CCC(F)(C(=O)N(C)[C@H](C(=O)N[C@H]2Cc3cc(O)cc(c3)-c3ccc4c(c3)c(c(-c3ccccc3CCOC)n4CC)CC(C)(C)COC(=O)[C@@H]3CCCN(N3)C2=O)C(C)C)CC1 [US11566007, Example A11] | in the range around 0.55 µM |
| C=CC(=O)N1CC[C@@]2(CCN([C@H](C(=O)N[C@H]3Cc4cc(O)cc(c4)-c4ccc5c(c4)c(c(-c4ccccc4CCOC)n5CC)CC(C)(C)COC(=O)[C@@H]4CCCN(N4)C3=O)C(C)C)C2=O)C1 [US11566007, Example A68] | in the range around 0.55 µM |
| C=CC(=O)N1C[C@H](C)[C@H](C(=O)N(C)[C@H](C(=O)N[C@H]2Cc3cc(O)cc(c3)-c3ccc4c(c3)c(c(-c3ccccc3CN(C)C)n4CC)CC(C)(C)COC(=O)[C@@H]3CCCN(N3)C2=O)C2CCCC2)C1 [US11566007, Example A43] | in the range around 0.055 µM |

Biological target: GTPase KRas [G13C] (Homo sapiens, UniProt P01116, G13C)
Sequence (P01116 whole entry G13C): as the sequence (P01116 whole entry G12C) above, with C12G, G13C counted along it
Test: Biochemical Assay
Text: as §1

| IC50 | SMILES |
| --- | --- |
| in the range around 0.55 µM | CCn1c(-c2cnccc2COC)c2c3cc(ccc31)-c1cc(O)cc(c1)C[C@H](NC(=O)[C@H](C(C)C)N(C)C(=O)[C@H]1CCN(C(=O)/C=C/CN(C)C)C1)C(=O)N1CCC[C@H](N1)C(=O)OCC(C)(C)C2 [US11566007, Example A87] |
| in the range around 0.55 µM | C=CC(=O)N1CCN(C(=O)N(C)[C@H](C(=O)N[C@H]2Cc3cc(O)cc(c3)-c3ccc4c(c3)c(c(-c3ccccc3CCOC)n4CC)CC(C)(C)COC(=O)[C@@H]3CCCN(N3)C2=O)C(C)C)CC1 [US11566007, Example A18] |

The remaining lines, values behind:

| SMILES | IC50 |
| --- | --- |
| CCn1c(-c2ccccc2CN(C)C)c2c3cc(ccc31)-c1cc(O)cc(c1)C[C@H](NC(=O)[C@H](C(C)C)N(C)C(=O)c1ccc(NC(=O)/C=C/CN(C)C)cn1)C(=O)N1CCC[C@H](N1)C(=O)OCC(C)(C)C2 [US11566007, Example A46] | in the range around 0.055 µM |
| CCn1c(-c2cccnc2COC)c2c3cc(ccc31)-c1cc(O)cc(c1)C[C@H](NC(=O)[C@H](C(C)C)N(C)C(=O)C1CN(C(=O)C#CCN(C)C)C1)C(=O)N1CCC[C@H](N1)C(=O)OCC(C)(C)C2 [US11566007, Example A97] | < 0.01 µM |
| CCn1c(-c2ccccc2CN(C)C)c2c3cc(ccc31)-c1cc(O)cc(c1)C[C@H](NC(=O)[C@H](C(C)C)N(C)C(=O)c1ccc(NC(=O)/C=C/CN(C)C)cc1)C(=O)N1CCC[C@H](N1)C(=O)OCC(C)(C)C2 [US11566007, Example A49] | in the range around 0.55 µM |
| C=CC(=O)N1C[C@H](C)[C@H](C(=O)N(C)[C@H](C(=O)N[C@H]2Cc3cc(O)cc(c3)-c3ccc4c(c3)c(c(-c3ccccc3CCOC)n4CC)CC(C)(C)COC(=O)[C@@H]3CCCN(N3)C2=O)C(C)C)C1 [US11566007, Example A41] | in the range around 5.5 µM |
| C=CC(=O)N1CCCN(C(=O)N(C)[C@H](C(=O)N[C@H]2Cc3cc(O)cc(c3)-c3ccc4c(c3)c(c(-c3ccccc3CCOC)n4CC)CC(C)(C)COC(=O)[C@@H]3CCCN(N3)C2=O)C(C)C)CC1 [US11566007, Example A13] | in the range around 0.55 µM |
